Consider four compounds from US20250043299A1, “POINT MUTATIONS THAT BOOST AROMATIC AMINO ACID PRODUCTION AND CO2 ASSIMILATION IN PLANTS” (Wisconsin Alumni Research Foundation, priority 2021, published 2025).

Read-outs that look alike come from different tables or passages of the source.

Format in all cases: biochemical
The target in one test is T1, DHS2^F1 (Arabidopsis thaliana, UniProt Q00218, L136F).
T1 construct: without the predicted plastid transit peptide (amino acid residues; 49-525, 34-507, and 52-527, respectively); made in house; host or cells: E. coli
T1 sequence (Q00218 34-507 L136F): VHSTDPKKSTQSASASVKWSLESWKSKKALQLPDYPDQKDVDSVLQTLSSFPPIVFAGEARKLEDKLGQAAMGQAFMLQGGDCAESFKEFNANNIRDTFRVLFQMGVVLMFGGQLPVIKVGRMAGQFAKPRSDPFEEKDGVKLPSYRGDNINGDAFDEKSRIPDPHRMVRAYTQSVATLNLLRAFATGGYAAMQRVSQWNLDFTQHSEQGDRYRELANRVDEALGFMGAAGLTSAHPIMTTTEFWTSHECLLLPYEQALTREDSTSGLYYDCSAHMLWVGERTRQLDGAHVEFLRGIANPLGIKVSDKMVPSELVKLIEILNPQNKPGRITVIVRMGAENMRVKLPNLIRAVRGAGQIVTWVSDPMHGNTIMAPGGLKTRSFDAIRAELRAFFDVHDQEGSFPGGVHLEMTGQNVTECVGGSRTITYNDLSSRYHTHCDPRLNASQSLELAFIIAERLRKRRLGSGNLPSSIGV
Nature of the test: DHS enzyme assay, recombinant DHS2^F1. Particulars: for IC50: read-out: IC50 of effector molecule on DHS2^F1. As for the experimental part: (§1) To generate recombinant DHS proteins the pET28a vectors carrying the A. thaliana DHS1 (AtDHS1), AtDHS2, or AtDHS3 WT sequence without the predicted plastid transit peptide (amino acid residues; 49-525, 34-507, and 52-527, respectively) were expressed in E. coli Rosetta-2 cells and purified using Ni-affinity chromatography, exactly as was conducted previously (9). To generate DHS proteins with individual sota mutations via site-directed mutagenesis, these pET28a plasmid templates were diluted by 500-fold, mixed with 0.04 U/μL Phusion DNA polymerase (Thermo Scientific), 0.2 mM deoxynucleoside triphosphates (dNTPs), 1× Phusion reaction buffer (Thermo Scientific), and 0.5 μM forward and reverse mutagenesis primers (Table 10). The PCR reaction was run using the following protocol: 98° C. for 30 s followed by 20 cycles of 10 s at 98° C., 20 s at 70° C., 4.5 min at 72° C. with a final extension at 72° C. for 10 min. The PCR products were purified using a QIAquick Gel Extraction Kit (QIAGEN), treated with FastDigest DpnI (Thermo Scientific) to digest methylated plasmid template DNA for 20 min at 37° C., and transformed into E. coli cells. The mutagenized pET28a plasmids were sequenced to confirm that no errors were introduced during the mutagenesis process.
(§2) The DHS enzyme assays were conducted using the colorimetric method that we recently described (9). Briefly, the enzyme solution (7.7 μl) containing 50 mM Hepes (pH 7.4) was preincubated with an effector molecule(s) at room temperature for 15 min. For assays using recombinant protein and enzyme fractions isolated from plant leaves, 0.01 to 0.1 μg and approximately 50 μg of proteins were used, respectively. After adding 0.5 μl of 0.1 M dithiothreitol, the samples were further incubated at room temperature for 15 min. During these incubations, the substrate solution containing 50 mM Hepes (pH 7.4), 2 mM MnCl2, 4 mM E4P, and 4 mM PEP at final concentration was preheated at 37° C. The enzyme reaction was started by adding 6.8 μl of the substrate solution, then incubated at 37° C. for 30 min, and terminated by adding 30 μl of 0.6 M trichloroacetic acid. After a brief centrifugation, 5 μl of 200 mM NaIO4 (sodium meta-periodate) in 9 N H3PO4 was added to oxidize the enzymatic product and to incubate at 25° C. for 20 min. To stop the oxidation reaction, 20 μl of 0.75 M NaAsO2 (sodium arsenite), which was dissolved in 0.5 M Na2SO4 and 0.05 M H2SO4, was added and immediately mixed. After 5 min of incubation at room temperature, one-third of the sample solution was transferred to a new tube to be mixed with 50 μl of 40 mM thiobarbituric acid and incubated at 99° C. for 15 min in a thermal cycler. The mixture was added to 600 μl of cyclohexanone in eight-strip solvent-resistant plastic tubes, mixed vigorously, and centrifuged at 4500 g for 3 min to separate water- and cyclohexanone-based layers for the extraction off the developed pink chromophore. The absorbance of the pink supernatant was read at 549 nm with the microplate reader (Infinite 200 PRO, TECAN) to calculate DAHP production with the molar extinction coefficient at 549 nm (ε=549 nm) of 4.5×10^4 M^−1 cm^−1. Reaction mixtures with boiled enzymes were run in parallel and used as negative controls to estimate the background signal.

For the next test, the target named is T2, DHS2^A11 (Arabidopsis thaliana, UniProt Q00218, A224T).
T2 construct: without the predicted plastid transit peptide (amino acid residues; 49-525, 34-507, and 52-527, respectively); made in house; host or cells: E. coli
T2 sequence (Q00218 34-507 A224T): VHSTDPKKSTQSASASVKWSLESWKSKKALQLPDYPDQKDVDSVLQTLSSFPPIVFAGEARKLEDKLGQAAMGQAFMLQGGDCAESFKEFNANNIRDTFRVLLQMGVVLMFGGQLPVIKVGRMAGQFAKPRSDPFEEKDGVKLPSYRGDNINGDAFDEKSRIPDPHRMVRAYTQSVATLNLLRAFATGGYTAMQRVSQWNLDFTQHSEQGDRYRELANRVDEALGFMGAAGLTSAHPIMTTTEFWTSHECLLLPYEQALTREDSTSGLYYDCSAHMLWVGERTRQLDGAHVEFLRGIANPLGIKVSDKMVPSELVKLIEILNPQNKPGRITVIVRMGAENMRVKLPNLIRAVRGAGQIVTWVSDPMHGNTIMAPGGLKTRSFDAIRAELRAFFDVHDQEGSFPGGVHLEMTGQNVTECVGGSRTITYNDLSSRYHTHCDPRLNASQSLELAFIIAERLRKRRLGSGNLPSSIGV
In words: DHS enzyme assay, recombinant DHS2^A11. To be noted: for IC50: read-out: IC50 of effector molecule on DHS2^A11. The procedure: as §1, §2

The next test concerns the target T3, DHS1^B4 (Arabidopsis thaliana, UniProt P29976, G244R).
T3 construct: without the predicted plastid transit peptide (amino acid residues; 49-525, 34-507, and 52-527, respectively); made in house; host or cells: E. coli
In words: DHS enzyme assay, recombinant DHS1^B4. Particulars: recombinant enzyme; for IC50: read-out: IC50 of effector molecule on DHS1^B4. As for the experimental part: as §1, §2

In another test the target is T4, DHS2^A4 (Arabidopsis thaliana, UniProt Q00218, G222S).
T4 construct: without the predicted plastid transit peptide (amino acid residues; 49-525, 34-507, and 52-527, respectively); made in house; host or cells: E. coli
T4 sequence (Q00218 34-507 G222S): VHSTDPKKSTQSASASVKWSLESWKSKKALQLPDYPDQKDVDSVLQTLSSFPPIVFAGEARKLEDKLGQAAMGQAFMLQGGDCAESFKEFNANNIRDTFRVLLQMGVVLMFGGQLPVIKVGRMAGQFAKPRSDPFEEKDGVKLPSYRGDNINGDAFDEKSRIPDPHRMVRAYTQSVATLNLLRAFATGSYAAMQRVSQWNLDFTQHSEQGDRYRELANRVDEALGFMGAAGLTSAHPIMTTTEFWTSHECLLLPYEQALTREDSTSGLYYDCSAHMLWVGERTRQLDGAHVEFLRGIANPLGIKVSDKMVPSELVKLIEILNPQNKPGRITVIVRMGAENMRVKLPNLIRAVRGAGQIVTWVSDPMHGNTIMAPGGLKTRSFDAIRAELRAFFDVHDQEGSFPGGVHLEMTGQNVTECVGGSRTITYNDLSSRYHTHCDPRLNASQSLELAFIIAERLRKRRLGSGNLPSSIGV
Particulars: for IC50: read-out: IC50 of effector molecule on DHS2^A4. As for the experimental part: as §1, §2

A further test concerns the target T5, DHS1^WT (Arabidopsis thaliana, UniProt P29976).
T5 construct: without the predicted plastid transit peptide (amino acid residues; 49-525, 34-507, and 52-527, respectively); made in house; host or cells: E. coli Rosetta-2
Nature of the test: DHS enzyme assay (colorimetric), recombinant DHS1^WT. To be noted: recombinant enzyme; read-out: IC50 of effector molecule on DHS1^WT. As for the experimental part: as §1, §2

Test [1] addresses T6, Arabidopsis thaliana DHS1 (SEQ ID NO:1) variant DHS1^B4 (sotaB4), G244R (Arabidopsis thaliana, UniProt P29976, G244R).
T6 construct: without the predicted plastid transit peptide (amino acid residues; 49-525, 34-507, and 52-527, respectively); made in house; host or cells: E. coli
In words: DHS enzyme assay with effector, DHS1 sotaB4. The procedure: as §1, §2

Test [2] has as its target Arabidopsis thaliana DHS3 (SEQ ID NO:3) variant DHS3^G1 (sotaG1), A240T (Arabidopsis thaliana, UniProt Q9SK84, A240T). In words: DHS enzyme assay with effector, DHS3 sotaG1. As for the experimental part:
as §1
(§3) The DHS enzyme assays were conducted using the colorimetric method that we recently described (9). Briefly, the enzyme solution (7.7 μl) containing 50 mM Hepes (pH 7.4) was preincubated with an effector molecule(s) at room temperature for 15 min. For assays using recombinant protein and enzyme fractions isolated from plant leaves, 0.01 to 0.1 μg and approximately 50 μg of proteins were used, respectively. After adding 0.5 μl of 0.1 M dithiothreitol, the samples were further incubated at room temperature for 15 min. […] The absorbance of the pink supernatant was read at 549 nm with the microplate reader (Infinite 200 PRO, TECAN) to calculate DAHP production with the molar extinction coefficient at 549 nm (ε=549 nm) of 4.5×10^4 M^−1 cm^−1. […]

Test [3] deals with T7, Arabidopsis thaliana DHS2 (SEQ ID NO:2) variant DHS2^A11 (sotaA11), A224T (Arabidopsis thaliana, UniProt Q00218, A224T).
T7 construct: without the predicted plastid transit peptide (amino acid residues; 49-525, 34-507, and 52-527, respectively); made in house; host or cells: E. coli
T7 sequence (Q00218 34-507 A224T): as the sequence (Q00218 34-507 A224T) above
In words: DHS enzyme assay with effector, DHS2 sotaA11. As for the experimental part:
as §1, §3

Test [4] concerns the target T8, Arabidopsis thaliana DHS2 (SEQ ID NO:2) variant DHS2^A4 (sotaA4), G222S (Arabidopsis thaliana, UniProt Q00218, G222S).
T8 construct: without the predicted plastid transit peptide (amino acid residues; 49-525, 34-507, and 52-527, respectively); made in house; host or cells: E. coli
In words: biochemical. As for the experimental part: as §1, §2

Test [5] concerns the target Arabidopsis thaliana DHS3 (SEQ ID NO:3) variant DHS3^H1 (sotaH1), G114R (Arabidopsis thaliana, UniProt Q9SK84, G114R). In words: DHS enzyme assay with effector, DHS3 sotaH1. As for the experimental part:
as §1, §3

The target in test [6] is T9, Arabidopsis thaliana DHS2 (SEQ ID NO:2) variant DHS2^F1 (sotaF1), L136F (Arabidopsis thaliana, UniProt Q00218, L136F).
T9 construct: without the predicted plastid transit peptide (amino acid residues; 49-525, 34-507, and 52-527, respectively); made in house; host or cells: E. coli
T9 sequence (Q00218 34-507 L136F): as the sequence (Q00218 34-507 L136F) above
Nature of the test: DHS enzyme assay with effector, DHS2 sotaF1. The procedure:
as §1, §3

Test [7] addresses Arabidopsis thaliana DHS3 (AtDHS3), wild type (DHS3^WT), SEQ ID NO:3 (Arabidopsis thaliana, UniProt Q9SK84). Nature of the test: DHS enzyme assay with effector, Arabidopsis DHS3 WT. The procedure: as §1, §3
The mark [8] stands for this setting: DHS3^WT, 4 mM E4P, 4 mM PEP, pH 7.4, 37° C., read-out: IC50.

Arabidopsis thaliana DHS3 (SEQ ID NO:3) variant DHS3^H1 (sotaH1), G114R, sequence (Q9SK84 entry or part of it G114R): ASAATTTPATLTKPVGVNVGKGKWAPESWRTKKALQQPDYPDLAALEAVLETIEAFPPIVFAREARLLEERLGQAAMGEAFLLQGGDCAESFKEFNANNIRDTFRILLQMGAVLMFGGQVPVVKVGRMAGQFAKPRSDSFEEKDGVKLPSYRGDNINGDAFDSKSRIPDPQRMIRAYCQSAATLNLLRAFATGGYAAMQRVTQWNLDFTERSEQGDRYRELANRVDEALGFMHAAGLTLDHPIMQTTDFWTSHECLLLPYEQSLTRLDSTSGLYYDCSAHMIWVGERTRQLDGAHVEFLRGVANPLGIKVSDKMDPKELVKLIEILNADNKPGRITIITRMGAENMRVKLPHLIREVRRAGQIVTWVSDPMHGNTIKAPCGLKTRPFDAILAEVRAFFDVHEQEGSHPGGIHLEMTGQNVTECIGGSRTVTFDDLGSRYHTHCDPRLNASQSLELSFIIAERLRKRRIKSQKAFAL
T8 sequence (Q00218 34-507 G222S): as the sequence (Q00218 34-507 G222S) above
T5 sequence (P29976 49-525): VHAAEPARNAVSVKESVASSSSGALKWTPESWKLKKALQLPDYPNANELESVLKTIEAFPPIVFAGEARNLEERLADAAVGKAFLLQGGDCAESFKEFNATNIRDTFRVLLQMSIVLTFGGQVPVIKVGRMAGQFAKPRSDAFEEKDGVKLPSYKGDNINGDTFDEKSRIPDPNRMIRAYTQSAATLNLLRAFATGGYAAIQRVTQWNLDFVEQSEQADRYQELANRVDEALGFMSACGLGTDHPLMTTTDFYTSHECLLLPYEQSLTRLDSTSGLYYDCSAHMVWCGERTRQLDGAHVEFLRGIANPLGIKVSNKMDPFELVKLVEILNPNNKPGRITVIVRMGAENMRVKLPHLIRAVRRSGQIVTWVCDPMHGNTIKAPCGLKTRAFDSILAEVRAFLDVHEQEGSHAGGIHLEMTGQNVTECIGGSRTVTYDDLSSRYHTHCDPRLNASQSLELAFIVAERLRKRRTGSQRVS
Arabidopsis thaliana DHS3 (AtDHS3), wild type (DHS3^WT), SEQ ID NO:3, sequence (Q9SK84 entry or part of it): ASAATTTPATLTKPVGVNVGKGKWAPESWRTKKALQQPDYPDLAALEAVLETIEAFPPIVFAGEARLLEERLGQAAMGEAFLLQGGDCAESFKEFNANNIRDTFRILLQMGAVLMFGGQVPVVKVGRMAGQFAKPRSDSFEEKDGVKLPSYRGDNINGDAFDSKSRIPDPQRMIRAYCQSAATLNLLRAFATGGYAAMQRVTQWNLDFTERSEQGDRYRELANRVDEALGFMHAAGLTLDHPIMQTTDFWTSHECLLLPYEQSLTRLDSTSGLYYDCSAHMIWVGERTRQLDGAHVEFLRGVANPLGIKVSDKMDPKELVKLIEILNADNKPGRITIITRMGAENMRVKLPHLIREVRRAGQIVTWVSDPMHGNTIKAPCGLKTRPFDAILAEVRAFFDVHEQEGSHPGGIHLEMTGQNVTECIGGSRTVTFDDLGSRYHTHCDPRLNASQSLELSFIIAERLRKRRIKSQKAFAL
Arabidopsis thaliana DHS3 (SEQ ID NO:3) variant DHS3^G1 (sotaG1), A240T, sequence (Q9SK84 entry or part of it A240T): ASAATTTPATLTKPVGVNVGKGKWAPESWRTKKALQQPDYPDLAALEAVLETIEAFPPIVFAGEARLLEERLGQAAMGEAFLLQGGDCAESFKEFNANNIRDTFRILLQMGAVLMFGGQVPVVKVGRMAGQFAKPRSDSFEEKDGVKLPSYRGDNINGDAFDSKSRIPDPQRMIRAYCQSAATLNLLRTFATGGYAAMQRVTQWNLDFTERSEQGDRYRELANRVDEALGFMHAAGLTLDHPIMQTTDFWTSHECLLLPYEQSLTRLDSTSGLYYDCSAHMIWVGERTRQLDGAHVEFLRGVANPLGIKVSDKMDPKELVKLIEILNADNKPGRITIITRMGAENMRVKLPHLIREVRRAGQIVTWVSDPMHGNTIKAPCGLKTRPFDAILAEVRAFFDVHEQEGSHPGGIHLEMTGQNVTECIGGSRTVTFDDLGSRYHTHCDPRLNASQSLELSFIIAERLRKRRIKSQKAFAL

Consider `N[C@@H](Cc1c[nH]c2ccccc12)C(=O)O` [Trp, tryptophan], for which the “inhibition of DHS2^F1 activity” value at DHS2^F1 (effector up to 1 mM) is reported as “not inhibited”. Further, at DHS2^F1 (recombinant enzyme), the “IC50 of effector molecule on DHS2^F1” value is “Not inhibited”. In addition, the “inhibition of DHS2^A11 activity” value at DHS2^A11 (effector up to 1 mM) is on record as “not inhibited”. Further, on DHS2^A11 (recombinant enzyme), the “IC50 of effector molecule on DHS2^A11” value is given as “Not inhibited”. At DHS1^B4, the “IC50 of effector molecule on DHS1^B4” value is listed as “Not inhibited”. For the same compound, on DHS2^A4 (effector up to 1 mM), the “inhibition of DHS2^A4 activity” value is listed as “not inhibited”. The “IC50 of effector molecule on DHS2^A4” value on DHS2^A4 (recombinant enzyme) was “Not inhibited”.
With `O=C(O)Cc1cc(O)ccc1O` [HGA, homogentisate], the half-inhibitory concentration (IC50) (as a rule, the concentration that gives 50% inhibition) at DHS1^WT amounted to 253 µM; on DHS2^F1 (recombinant enzyme) it was 788 µM; on DHS2^A11 (recombinant enzyme), 242 µM; in [1], 2990 µM; in [2], 375 µM; on DHS1^B4, 2990 µM. The IC50 in test [3] was determined as 242 µM; in test [4], 212 µM; in test [5], 405 µM; at DHS2^A4 (recombinant enzyme) it was 212 µM; in test [6], 788 µM; in [7] it was 102 µM.
In the case of `O=C(O)C(=O)Cc1ccc(O)cc1` [HPP, 4-Hydroxyphenylpyruvate], the IC50 on DHS2^F1 (recombinant enzyme) stood at 321 µM; at DHS2^A11 (recombinant enzyme) it was 58.6 µM; in test [1] it was 835 µM; in test [2] it was 915 µM; at DHS1^B4 it was 835 µM; in test [3], 58.6 µM. Further, the IC50 is 143 µM in [4]; 903 µM in [5]; 143 µM at DHS2^A4 (recombinant enzyme); 321 µM in test [6]; 516 µM in test [7] (setting [8]).
For `O=C(O)C(=O)Cc1c[nH]c2ccccc12` [IPA, indole-3-pyruvate], the IC50 at DHS1^WT is 241 µM; at DHS2^F1 (recombinant enzyme) it was 74 µM; at DHS2^A11 (recombinant enzyme), 90.6 µM; in [1], 5000 µM; in [2], 273 µM; on DHS1^B4 it was 5000 µM. For the same compound, the IC50 came out at 90.6 µM in test [3]; 73.4 µM in [4]; 108 µM in test [5]; 73.4 µM at DHS2^A4 (recombinant enzyme); 74 µM in test [6]; 25.3 µM in test [7] (setting [8]).
